Laboratory results taken from patent US9096591B2, “Tetracyclic compounds” (Medivation Technologies, Inc., priority 2007, dated 2015).
Where two headings read alike, the source gives them in different places.

Legend:
[1] = target: T1, human recombinant histamine H2 receptor (Homo sapiens, UniProt P25021); experiment: Histamine H2 radioligand binding ([125I]Aminopotentidine)
T1 construct: expressed in transfected cells; host or cells: CHO-K1 cells
Method in brief: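 This radioligand binding assay measured displacement of [125I]Aminopotentidine from recombinant human histamine H2 receptors. Compounds were dissolved in 1% DMSO vehicle. Specific binding was calculated by subtracting non-specific binding, defined using 3 μM Tiotidine, and activity was reported as percentage inhibition of that specific binding.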

[2] = target: T2, human recombinant adrenergic α1D receptor (Homo sapiens, UniProt P25100); experiment: Adrenergic α1D radioligand binding ([3H]Prozosin); design: Inhibition of ligand binding, Adren. alpha1D: concentration or dose not given beside the values; settings: for Inhibition of ligand binding, Adren. alpha1D: percent inhibition of specific binding; for inhibition at 1 µM: compounds screened at 1 μM, read-out: Inhibition of ligand binding, Adren. alpha1D (percent inhibition of specific binding)
T2 construct: expressed in transfected cells; host or cells: HEK-293 cells
T2 sequence (P25100 1-572): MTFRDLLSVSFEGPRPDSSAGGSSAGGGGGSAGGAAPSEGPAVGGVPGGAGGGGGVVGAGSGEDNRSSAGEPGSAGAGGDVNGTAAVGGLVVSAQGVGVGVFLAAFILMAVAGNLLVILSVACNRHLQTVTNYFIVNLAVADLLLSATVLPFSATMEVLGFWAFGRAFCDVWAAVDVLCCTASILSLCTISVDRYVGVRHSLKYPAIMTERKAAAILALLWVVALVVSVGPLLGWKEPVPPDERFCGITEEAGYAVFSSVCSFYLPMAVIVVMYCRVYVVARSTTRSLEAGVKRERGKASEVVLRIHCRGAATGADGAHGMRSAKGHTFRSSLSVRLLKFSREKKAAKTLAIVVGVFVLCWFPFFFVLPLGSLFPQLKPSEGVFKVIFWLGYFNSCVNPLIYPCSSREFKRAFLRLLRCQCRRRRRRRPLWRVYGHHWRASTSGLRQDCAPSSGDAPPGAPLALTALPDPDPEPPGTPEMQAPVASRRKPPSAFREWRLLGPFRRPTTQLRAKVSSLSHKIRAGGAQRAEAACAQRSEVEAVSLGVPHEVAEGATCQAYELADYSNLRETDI
Method: Compounds of invention were incubated with 0.6 nM [^3H]Prozosin for 60 minutes at 25° C. Non-specific binding was estimated in the presence of 10 μM phentolamine. Receptor proteins were filtered and washed, the filters were then counted to determine [^3H]Prozosin specifically bound. […] Biochemical assay results are presented as the percent inhibition of specific binding in Table 6.

[3] = target: T3, human recombinant adrenergic α2A receptor (Homo sapiens, UniProt P08913); experiment: Adrenergic α2A radioligand binding ([3H]MK-912); design: Inhibition of ligand binding, Adren. alpha2A: concentration or dose not given beside the values; settings: for Inhibition of ligand binding, Adren. alpha2A: percent inhibition of specific binding; for inhibition at 1 µM: compounds screened at 1 μM, read-out: Inhibition of ligand binding, Adren. alpha2A (percent inhibition of specific binding)
T3 construct: expressed in transfected cells; host or cells: insect Sf9 cells
T3 sequence (P08913 1-465): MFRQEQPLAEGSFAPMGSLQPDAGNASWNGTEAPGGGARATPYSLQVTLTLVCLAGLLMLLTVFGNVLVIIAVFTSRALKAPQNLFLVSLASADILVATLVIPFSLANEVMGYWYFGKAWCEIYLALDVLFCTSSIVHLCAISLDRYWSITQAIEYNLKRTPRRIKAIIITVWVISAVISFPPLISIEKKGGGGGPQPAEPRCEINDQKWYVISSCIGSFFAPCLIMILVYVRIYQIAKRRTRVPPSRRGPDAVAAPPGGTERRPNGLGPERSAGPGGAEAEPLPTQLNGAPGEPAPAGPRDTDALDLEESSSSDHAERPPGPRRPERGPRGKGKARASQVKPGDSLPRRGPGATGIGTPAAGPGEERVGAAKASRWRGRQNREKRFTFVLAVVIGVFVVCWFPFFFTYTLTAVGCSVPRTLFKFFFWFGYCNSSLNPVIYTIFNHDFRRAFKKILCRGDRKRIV
Method: To evaluate in radioligand binding assays the activity of compounds of the invention, human recombinant adrenergic α2A receptor expressed in insect Sf9 cells (Uhlen S et al. J Pharmacol Exp Ther. 271:1558, 1994) in a modified Tris-HCl buffer (50 mM Tris-HCl, pH 7.4, 12.5 mM MgCl2, 2 mM EDTA) was used. Compounds of invention were incubated with 1 nM [^3H]MK-912 for 60 minutes at 25° C. MK912 is (2S-trans)-1,3,4,5′,6,6′,7,12b-octahydro-1′,3′-dimethyl-spiro[2H-benzofuro[2,3-a]quinolizine-2,4′(1′H)-pyrimidin]-2′(3′H)-one hydrochloride Non-specific binding was estimated in the presence of 10 μM WB-4101 (2-(2,6-Dimethoxyphenoxyethyl)aminomethyl-1,4-benzodioxane hydrochloride). Receptor proteins were filtered and washed, the filters were then counted to determine [^3H]MK-912 specifically bound. […] Biochemical assay results are presented as the percent inhibition of specific binding in Table 6.

[4] = percent inhibition of specific binding, screened at 1 μM, read-out: Inhibition of ligand binding, Hist. H2
[5] = compounds screened at 1 μM, read-out: Inhibition of ligand binding, Hist. H2 (percent inhibition of specific binding)
[6] = 1 μM compound, 0.1 nM [125I]Aminopotentidine, read-out: Histamine Binding H2, percent inhibition of specific binding

T1 sequence (P25021 whole entry): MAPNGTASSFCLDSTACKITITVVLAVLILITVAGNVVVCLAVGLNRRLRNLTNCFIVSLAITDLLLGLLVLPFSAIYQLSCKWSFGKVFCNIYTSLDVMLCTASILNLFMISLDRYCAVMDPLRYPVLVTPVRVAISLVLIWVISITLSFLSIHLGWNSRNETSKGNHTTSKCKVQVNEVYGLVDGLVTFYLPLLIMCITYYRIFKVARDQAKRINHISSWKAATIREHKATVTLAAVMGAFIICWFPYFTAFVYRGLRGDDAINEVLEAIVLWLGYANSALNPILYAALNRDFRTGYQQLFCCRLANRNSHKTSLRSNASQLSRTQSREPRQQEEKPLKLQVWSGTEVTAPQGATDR

SMILES	inhibition at 1 µM [1, 4] [%]	Inhibition of ligand binding, Adren. alpha1D [2] [%]	Inhibition of ligand binding, Adren. alpha2A [3] [%]	inhibition at 1 µM [1, 5] [%]	inhibition at 1 µM [2] [%]	inhibition at 1 µM [3] [%]	inhibition at 1 µM [1, 6] [%]
COc1ccc(CCn2c3c(c4cc(Cl)ccc42)CN(C)CC3)cc1 [Compound 336, 8-Chloro-5-[2-(4-methoxy-phenyl)-ethyl]-2-methyl-2,3,4,5-tetrahydro-1H pyrido[4,3-b]indole]	101	98	96	–	–	–	–
Cc1ccc(CCn2c3c(c4cc(Br)ccc42)CN(C)CC3)cn1 [Compound 487, 8-bromo-2-methyl-5-(2-(6-methylpyridin-3-yl)ethyl)-2,3,4,5-tetrahydro-1H-pyrido[4,3-b]indole]	–	–	–	80	90	88	–
CN1CCc2c(c3cc(Cl)ccc3n2CC(=O)N2CCCCC2)C1 [Compound 236, 2-(8-chloro-1,2,3,4-tetrahydro-2-methylpyrido[4,3-b]indol-5-yl)-1-(piperidin-1-yl)ethanone]	17	10	0	–	–	–	17
CN1CCc2c(c3cc(I)ccc3n2CC(=O)N2CCCCC2)C1 [Compound 486, 2-(1,2,3,4-tetrahydro-8-iodo-2-methylpyrido[4,3-b]indol-5-yl)-1-(piperidin-1-yl)ethanone]	–	–	–	11	22	4	–
CN1CCc2c(c3cc(Cl)ccc3n2CCC(=O)N2CCCC2)C1 [Compound 240, 3-(8-chloro-1,2,3,4-tetrahydro-2-methylpyrido[4,3-b]indol-5-yl)-1-(pyrrolidin-1-yl)propan-1-one]	23	42	36	–	–	–	23
CN1CCc2c(c3cc(Br)ccc3n2CC(=O)N2CCCCC2)C1 [Compound 516, 2-(8-bromo-2-methyl-3,4-dihydro-1H-pyrido[4,3-b]indol-5(2H)-yl)-1-(piperidin-1-yl)ethanone]	–	–	–	12	26	3	–
CN1CCc2c(c3cc(Cl)ccc3n2CC(=O)N2CCS(=O)(=O)CC2)C1 [Compound 295]	10	4	26	–	–	–	–
CC1CCN(C(=O)CCn2c3c(c4cc(Cl)ccc42)CN(C)CC3)CC1 [Compound 325, 3-(8-chloro-1,2,3,4-tetrahydro-2-methylpyrido[4,3-b]indol-5-yl)-1-(4-methylpiperidin-1-yl)propan-1-one]	22	36	58	–	–	–	–
CN1CCc2c(c3ncccc3n2CCc2ccncc2)C1 [Compound 482, 9-aza-2-methyl-5-(2-(pyridin-4-yl)ethyl)-2,3,4,5-tetrahydro-1H-pyrido[4,3-b]indole]	–	–	–	-9	2	-17	–
CN1CCc2c(c3cc(Cl)ccc3n2CC(=O)N2CCNC(=O)C2)C1 [Compound 246]	16	12	21	–	–	–	16
Cc1ccc2c(c1)c1c(n2CC(=O)N2CCOCC2)CCN(C)C1 [Compound 330, 2-(1,2,3,4-tetrahydro-2,8-dimethylpyrido[4,3-b]indol-5-yl)-1-morpholinoethanone]	6	8	1	–	–	–	–
Cc1ccc2c(c1)c1c(n2CCc2ccc(C)nc2)CCNC1 [Compound 230, 2,3,4,5-tetrahydro-8-methyl-5-(2-(6-methylpyridin-3-yl)ethyl)-1H-pyrido[4,3-b]indole]	30	75	56	–	–	–	6
Cc1ccc2c(c1)c1c(n2CCCc2ccc(C(F)(F)F)nc2)CCN(C)C1 [Compound 331, 5-(3-(6-(trifluoromethyl)pyridin-3-yl)propyl)-2,3,4,5-tetrahydro-2,8-dimethyl-1H-pyrido[4,3-b]indole]	73	63	50	–	–	–	–
CN1CCc2c(c3ncccc3n2CCc2ccccn2)C1 [Compound 484, 9-aza-2-methyl-5-(2-(pyridin-2-yl)ethyl)-2,3,4,5-tetrahydro-1H-pyrido[4,3-b]indole]	–	–	–	-4	10	28	–
COc1ccc(CCn2c3c(c4cc(C)ccc42)CN(C)CC3)cc1 [Compound 247]	97	95	99	–	–	–	97
CN1CCc2c(c3cc(Cl)ccc3n2CCC(=O)N2CCOCC2)C1 [Compound 328, 3-(8-chloro-1,2,3,4-tetrahydro-2-methylpyrido[4,3-b]indol-5-yl)-1-morpholinopropan-1-one]	4	23	45	–	–	–	–
CCOC(=O)c1ccc(CCn2c3c(c4cc(C)ccc42)CN(C)CC3)cn1 [Compound 275, ethyl 5-(2-(1,2,3,4-tetrahydro-2,8-dimethylpyrido[4,3-b]indol-5-yl)ethyl)pyridine-2-carboxylate]	20	87	29	–	–	–	–
Cc1ccc2c(c1)c1c(n2CCc2ccc(CO)nc2)CCN(C)C1 [Compound 267]	42	92	49	–	–	–	–
CC1CN(C(=O)Cn2c3c(c4cc(Cl)ccc42)CN(C)CC3)CC(C)N1 (stereo not shown) [Compound 245]	8	1	8	–	–	–	8
CN1CCc2c(c3ccncc3n2CCc2ccncc2)C1 [Compound 483, 7-aza-2-methyl-5-(2-(pyridin-4-yl)ethyl)-2,3,4,5-tetrahydro-1H-pyrido[4,3-b]indole]	–	–	–	-7	3	-7	–
CN1CCc2c(c3cc(Cl)ccc3n2CC(=O)N2CCNCC2)C1 [Compound 244]	10	12	22	–	–	–	10
CC1CCCCN1C(=O)Cn1c2c(c3cc(Cl)ccc31)CN(C)CC2 (stereo not shown) [Compound 321, 2-(8-chloro-1,2,3,4-tetrahydro-2-methylpyrido[4,3-b]indol-5-yl)-1-(2-methylpiperidin-1-yl)ethanone]	25	4	12	–	–	–	–
